Format in all cases: cell-based, human
One experiment has as its system Mewo cells (NF1 LOF). In words: Proliferation inhibition (CellTiter-Glo), Mewo. To be noted: 3 days, read-out: Mewo Prolif. EC50. The protocol: (§1) All cancer cell lines (A375, A101D, A2058, RKO, HT29 SK-MEL 30, IPC298, HepG2, HCT-116, Lovo, SWV620, SW480, NCI-H358, NCI-H2122, Calu-6, NCIH2087, NCIH1755, NCIH1666 and Mewo) were obtained from ATCC and cultured in RPMI-1640 medium (Gibco) supplemented with 5% heat inactivated fetal bovine serum (FBS, Wisent) at 37° C. under 5% CO2. Cells were maintained in T175 flasks (Greiner). They were passaged by removing the culture medium, washing once in 10 mL of room temperature Phosphate Buffered Saline (PBS; Wisent) and incubating at 37° C. with 2 mL of 0.05% Trypsin (Thermo-Fisher). Trypsin was then inactivated by adding complete growth medium and the cells were then replated in a T175 culture dish at the appropriate dilution. All cell lines were routinely tested for mycoplasma contamination. Tissue type and mutational status of each cell line can be found in Table B.
CellTiter-Glo® viability analysis was conducted on cells plated in 100 μL of complete RPMI-1640 growth medium in 96-well flat-bottomed white opaque plates (Greiner or Croning) at a density indicated in Table E (for each CCL, number of cells plated per well of a 96-well plate to perform the CellTiter-Glo® cell viability assay). The cell density in cells/cm^2 would correspond to cell number divided by the area of one well of a 96-well plate (0.32 cm^2). […]
After 3 days of incubation, the growth media were removed by aspiration and 60 μL of diluted CellTiter-Glo® reagent (10 μL CellTiter-Glo® reagent+50 μL of PBS) was added to each well. […] Luminescence signals were then acquired on a Synergy Neo2 plate reader (Biotek).
The effect of each compound dilution on the proliferation of cancer cell lines was expressed in % inhibition and calculated as follows. […]
The ability of each compound to inhibit proliferation was expressed as a EC50 value obtained by plotting the effect values for each data point of a dilution series and fitting the obtained curves using a log(agonist) versus response-variable slope (four parameters) function using GraphPadPrism (V7.0) or Dotmatics Screening Ultra platform.
(In ATP-based viability assays light output follows the ATP content of the culture.)

Experiment [1] deals with pERK in NCIH2087 cells (BRAF L597V; KRAS Q61K). The experiment can be described thus: Phospho-ERK inhibition (AlphaLISA), NCIH2087. Particulars: for NCIH2087 pERK % Ymin: NCIH2087, value in parentheses. On the procedure:
as §1
(§2) AlphaLISA® SureFire® Ultra™ p-ERK 1/2 (Thr202/Tyr204) analysis was conducted on cells plated in 100 μL of complete RPMI-1640 growth medium in 96-well flat-bottomed transparent dishes (Costar) at a density indicated in Table C. Cells were maintained overnight at 37° C. under 5% CO2 before treatment with compounds' dilution series for one hour. The cell density in cells/cm^2 corresponds to cell number divided by the area of one well of a 96-well plate ([…]).
(§3) In a dilution series 100 μL/well of test substance dilution prepared in complete RPMI-1640 growth media was added to the cells. The dilution series is selected so that ten concentrations cover a range from 10 μM to 0.33 nM. If necessary the initial concentration of 10 μM is increased to 100 μM or lowered to 1 μM (as in the case of A375 and H1666 cells, which are generally more sensitive to the compounds) and further dilution is carried out accordingly. The final concentration of DMSO in the assay is set at 0.5%.
(§4) After treatment, media was removed and cells were lysed in 50 μL of 1× AlphaScreen Ultra Lysis Buffer (Perkin Elmer). The AlphaLISA® SureFire® Ultra™ p-ERK 1/2 (Thr202/Tyr2O4) (PerkinElmer) reactions were performed with 5 μL of cell lysate according to the manufacturer's specifications in 384-well proxyplates (Perkin Elmer) followed by overnight incubation of the reactions at room temperature in a humidified chamber. After completion of the reactions, the signals were recorded on an EnVision plate reader (Perkin Elmer) using built in AlphaLISA® settings.
(§5) The effect of each compound dilution on the pERK signal was expressed in % inhibition and calculated as follows. An internal 100% inhibition control ([…] trametinib, cat #HY-10999; MedChem Express; CAS #871700-17-3) was included in each plate and used as a measure of pERK background. First, the value obtained for trametinib was subtracted from each data point. The average of DMSO (vehicle) controls (set as 0% inhibition) was established and used to calculate % inhibition: % inhibition=100*(1-((pERK signalcompound)/(pERK signalDMSO)))
(§6) The ability of each compound to inhibit pERK signal was expressed as an IC50 value obtained by plotting the inhibition values for each data point of a dilution series and fitting the obtained curves using a log(agonist) versus response-variable slope (four parameters) function using GraphPadPrism (V7.0) or Dotmatics Screening Ultra platform.
(§7) When present, paradoxical pERK induction is inferred from the negative % inhibition values observed in the pERK IC50 curves of a compound.
In general terms: Alpha assays give light when donor and acceptor beads are brought close together.

The test system of experiment [2] is pERK in Calu-6 cells (KRAS Q61K). The experiment can be described thus: Phospho-ERK inhibition (AlphaLISA), Calu-6. Particulars: for Calu6 pERK % Ymin: Calu6, value in parentheses. The protocol: as §1, §2, §3, §4, §5, §6, §7

Read-outs that look alike come from different tables or passages of the source.

In general, EC50 refers to the concentration needed to bring the measured effect to its halfway point. In general, IC50 refers to the concentration needed to halve the response being measured. As for `CC1(O)CCN(c2cccc3c2ncn3-c2ccc3ncnc(Nc4c(F)ccc(NS(=O)(=O)c5cccc(Cl)c5Cl)c4F)c3n2)CC1` [Example 524], the half-maximal effective concentration (EC50) in the experiment with Mewo cells (NF1 LOF) was less than 0.03 µM. For the same compound, the figures for the 50% inhibitory concentration (IC50) in experiment [1] (NCIH2087) and in experiment [2] (Calu6) were less than 0.03 µM and 0.03 to 0.3 µM, respectively. Further, the “NCIH2087 pERK % Ymin” value in experiment [1] turned out to be 3%. Further, the “Calu6 pERK % Ymin” value in experiment [2] is on record as −13%.
For `Nc1cccc2c1ncn2-c1ccc2ncnc(Nc3c(F)ccc(NS(=O)(=O)c4cccc(Cl)c4Cl)c3F)c2n1` [Example 99], the EC50 with Mewo cells (NF1 LOF) is less than 0.03 µM. Further, the concentration for half-maximal inhibition (IC50) is less than 0.03 µM in experiment [1] (NCIH2087) and 0.03 to 0.3 µM in experiment [2] (Calu6). The “NCIH2087 pERK % Ymin” value in experiment [1] is 15%. The “Calu6 pERK % Ymin” value in experiment [2] is −12%.
With `Cc1ccc2c(Nc3cccc(Cl)c3F)nccc2c1NC(=O)c1csc2c(N)ncnc12` [Belvarafenib, reference compound], in the experiment on Mewo cells (NF1 LOF) (Homo sapiens, 72 h), the 50% effective concentration (EC50) lay within 0.3 to 3 µM. Also, the IC50 in experiment [1] (Homo sapiens, NCI-H2087) is less than 0.03 µM; in experiment [2] (Homo sapiens, Calu-6, read-out: Calu6 pERK IC50), 0.03 to 0.3 µM. Besides, the “NCIH2087 pERK % Ymin” value in experiment [1] came out at 6%. The “Calu6 pERK % Ymin” value in experiment [2] is given as −39%.

The values above are taken from patent publication US12139488B2, “Pyrido[3,2-d]pyrimidine compounds uses thereof for treating a proliferative disease” (Universite de Montreal, priority 2021, dated 2024).
